In the kinase profiling compilation of Christmann-Franck et al. (2016):
Each block holds one compound with its values, some of them ahead of it.

Columns and labels:
Test in all cases: Caliper, Mobility shift assay off-chip
DYRK4 (human) = DYRK4 (human) (UniProt Q9NR20)
AXL (human) = AXL (human) (UniProt P30530)
[1] = molecular target: PRKAA2 PRKAB1 PRKAG1 (human) (UniProt Q9Y478+P54646+P54619)
CAMK2A (human) = CAMK2A (human) (UniProt Q9UQM7)
ROS1 (human) = ROS1 (human) (UniProt P08922)
[2] = test system: RET (human), P07949 [Y791F]
CDK1 (human) = CDK1 (human) (UniProt P06493)
YES1 (human) = YES1 (human) (UniProt P07947)
CSNK1G2 (human) = CSNK1G2 (human) (UniProt P78368)
HIPK1 (human) = HIPK1 (human) (UniProt Q86Z02)
HIPK2 (human) = HIPK2 (human) (UniProt Q9H2X6)
MERTK (human) = MERTK (human) (UniProt Q12866)
ITK (human) = ITK (human) (UniProt Q08881)
[3] = test system: PDGFRA (human), P16234 [V561D]
NTRK3 (human) = NTRK3 (human) (UniProt Q16288)
DCLK1 (human) = DCLK1 (human) (UniProt O15075)
[4] = test system: FGFR3 (human), P22607 [K650E]
FRK (human) = FRK (human) (UniProt P42685)
Sequence of FRK (human) (P42685 whole entry, looked up): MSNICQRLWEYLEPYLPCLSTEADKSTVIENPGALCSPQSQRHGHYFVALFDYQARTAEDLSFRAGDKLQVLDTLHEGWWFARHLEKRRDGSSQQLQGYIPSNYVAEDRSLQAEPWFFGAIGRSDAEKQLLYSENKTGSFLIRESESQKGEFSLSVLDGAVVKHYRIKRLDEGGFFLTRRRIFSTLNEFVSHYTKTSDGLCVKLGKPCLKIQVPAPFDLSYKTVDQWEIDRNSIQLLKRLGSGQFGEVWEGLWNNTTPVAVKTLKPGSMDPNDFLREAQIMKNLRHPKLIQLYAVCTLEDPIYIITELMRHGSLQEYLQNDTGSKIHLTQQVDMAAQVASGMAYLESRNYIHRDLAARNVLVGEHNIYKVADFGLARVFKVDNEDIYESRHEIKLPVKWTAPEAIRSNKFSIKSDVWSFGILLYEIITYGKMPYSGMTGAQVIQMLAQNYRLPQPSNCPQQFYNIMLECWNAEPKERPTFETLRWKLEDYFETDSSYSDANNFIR

DYRK3 (human) = DYRK3 (human) (UniProt O43781)
PHKG1 (human) = PHKG1 (human) (UniProt Q16816)
EPHA8 (human) = EPHA8 (human) (UniProt P29322)
[5] = test system: EGFR (human), P00533 [T790M]
TYRO3 (human) = TYRO3 (human) (UniProt Q06418)
Sequence of TYRO3 (human) (Q06418 whole entry, looked up): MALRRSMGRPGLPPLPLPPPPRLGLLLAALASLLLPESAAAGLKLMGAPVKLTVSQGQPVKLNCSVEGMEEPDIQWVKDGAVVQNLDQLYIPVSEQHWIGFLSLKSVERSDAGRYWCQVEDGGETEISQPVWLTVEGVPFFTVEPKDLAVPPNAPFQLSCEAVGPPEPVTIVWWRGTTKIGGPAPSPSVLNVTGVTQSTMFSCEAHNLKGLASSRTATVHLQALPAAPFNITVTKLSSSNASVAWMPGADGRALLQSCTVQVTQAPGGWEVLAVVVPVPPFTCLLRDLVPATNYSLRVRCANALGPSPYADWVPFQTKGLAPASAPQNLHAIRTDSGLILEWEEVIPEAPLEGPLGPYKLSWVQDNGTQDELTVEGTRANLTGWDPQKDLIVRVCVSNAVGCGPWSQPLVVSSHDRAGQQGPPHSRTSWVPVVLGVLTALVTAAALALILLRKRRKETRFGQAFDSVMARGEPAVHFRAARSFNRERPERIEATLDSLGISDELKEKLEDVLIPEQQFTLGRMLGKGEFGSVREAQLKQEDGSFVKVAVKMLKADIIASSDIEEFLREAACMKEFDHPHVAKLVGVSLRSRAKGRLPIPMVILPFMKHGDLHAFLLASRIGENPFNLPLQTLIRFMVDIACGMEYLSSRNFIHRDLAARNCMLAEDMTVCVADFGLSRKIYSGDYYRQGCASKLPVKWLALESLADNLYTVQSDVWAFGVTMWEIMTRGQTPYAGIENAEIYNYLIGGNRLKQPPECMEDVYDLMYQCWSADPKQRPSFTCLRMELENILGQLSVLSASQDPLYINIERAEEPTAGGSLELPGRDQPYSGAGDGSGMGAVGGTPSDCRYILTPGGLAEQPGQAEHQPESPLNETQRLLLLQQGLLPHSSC

MST1R (human) = MST1R (human) (UniProt Q04912)
ALK (human) = ALK (human) (UniProt Q9UM73)
JAK2 JH1 JH2 (human) = JAK2 JH1 JH2 (human) (UniProt O60674)
RET (human) = RET (human) (UniProt P07949)
RPS6KA6 KD1 KD2 (human) = RPS6KA6 KD1 KD2 (human) (UniProt Q9UK32)
MARK4 (human) = MARK4 (human) (UniProt Q96L34)
Sequence of MARK4 (human) (Q96L34 whole entry, looked up): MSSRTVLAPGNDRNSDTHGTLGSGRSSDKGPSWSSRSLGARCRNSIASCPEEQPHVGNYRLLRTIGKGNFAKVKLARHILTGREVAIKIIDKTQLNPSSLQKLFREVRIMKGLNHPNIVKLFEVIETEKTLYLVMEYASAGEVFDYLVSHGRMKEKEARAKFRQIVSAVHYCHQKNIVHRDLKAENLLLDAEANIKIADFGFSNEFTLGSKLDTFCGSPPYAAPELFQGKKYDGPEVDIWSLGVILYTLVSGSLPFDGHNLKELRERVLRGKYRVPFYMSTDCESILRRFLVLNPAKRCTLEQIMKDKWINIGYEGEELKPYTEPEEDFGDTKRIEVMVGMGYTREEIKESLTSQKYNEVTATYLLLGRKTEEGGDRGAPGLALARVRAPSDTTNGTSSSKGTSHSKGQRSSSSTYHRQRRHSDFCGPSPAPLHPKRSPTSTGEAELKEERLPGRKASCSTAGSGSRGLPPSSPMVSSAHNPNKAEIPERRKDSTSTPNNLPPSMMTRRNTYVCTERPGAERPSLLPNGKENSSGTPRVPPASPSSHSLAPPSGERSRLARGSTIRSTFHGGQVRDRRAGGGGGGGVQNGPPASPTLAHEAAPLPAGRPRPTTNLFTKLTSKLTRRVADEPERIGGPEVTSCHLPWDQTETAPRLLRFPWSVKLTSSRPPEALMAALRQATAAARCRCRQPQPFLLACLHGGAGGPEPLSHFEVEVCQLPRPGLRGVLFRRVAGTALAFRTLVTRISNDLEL

KIT (human) = KIT (human) (UniProt P10721)
PTK2B (human) = PTK2B (human) (UniProt Q14289)
Sequence of PTK2B (human) (Q14289 whole entry, looked up): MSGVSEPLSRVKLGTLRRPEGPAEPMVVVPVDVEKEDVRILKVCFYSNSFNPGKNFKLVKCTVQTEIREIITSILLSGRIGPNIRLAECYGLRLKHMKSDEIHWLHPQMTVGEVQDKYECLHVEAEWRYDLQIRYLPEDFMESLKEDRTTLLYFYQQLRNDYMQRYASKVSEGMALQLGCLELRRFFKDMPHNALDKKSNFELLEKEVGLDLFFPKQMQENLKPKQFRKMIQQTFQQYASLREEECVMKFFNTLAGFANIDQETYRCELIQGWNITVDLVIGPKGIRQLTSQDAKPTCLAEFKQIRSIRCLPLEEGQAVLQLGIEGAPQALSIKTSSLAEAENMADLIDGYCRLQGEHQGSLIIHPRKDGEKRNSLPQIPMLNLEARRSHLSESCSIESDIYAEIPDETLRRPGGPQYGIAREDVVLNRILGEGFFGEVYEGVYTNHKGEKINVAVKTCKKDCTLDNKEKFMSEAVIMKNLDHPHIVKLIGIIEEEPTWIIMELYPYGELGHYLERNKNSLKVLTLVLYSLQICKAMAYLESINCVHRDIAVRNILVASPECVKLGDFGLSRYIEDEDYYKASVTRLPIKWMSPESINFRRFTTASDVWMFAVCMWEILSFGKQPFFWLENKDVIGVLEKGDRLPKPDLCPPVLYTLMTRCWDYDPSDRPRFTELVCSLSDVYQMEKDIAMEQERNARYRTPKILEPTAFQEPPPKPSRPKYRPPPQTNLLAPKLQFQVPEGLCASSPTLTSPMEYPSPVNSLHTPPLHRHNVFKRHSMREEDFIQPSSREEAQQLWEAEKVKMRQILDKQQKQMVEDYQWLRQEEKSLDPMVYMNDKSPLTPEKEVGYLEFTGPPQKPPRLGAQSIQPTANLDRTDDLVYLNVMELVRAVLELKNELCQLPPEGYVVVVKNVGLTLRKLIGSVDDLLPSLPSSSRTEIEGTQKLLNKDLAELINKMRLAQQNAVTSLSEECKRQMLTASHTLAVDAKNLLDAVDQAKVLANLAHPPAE

PRKCI (human) = PRKCI (human) (UniProt P41743)
Sequence of PRKCI (human) (P41743 whole entry, looked up): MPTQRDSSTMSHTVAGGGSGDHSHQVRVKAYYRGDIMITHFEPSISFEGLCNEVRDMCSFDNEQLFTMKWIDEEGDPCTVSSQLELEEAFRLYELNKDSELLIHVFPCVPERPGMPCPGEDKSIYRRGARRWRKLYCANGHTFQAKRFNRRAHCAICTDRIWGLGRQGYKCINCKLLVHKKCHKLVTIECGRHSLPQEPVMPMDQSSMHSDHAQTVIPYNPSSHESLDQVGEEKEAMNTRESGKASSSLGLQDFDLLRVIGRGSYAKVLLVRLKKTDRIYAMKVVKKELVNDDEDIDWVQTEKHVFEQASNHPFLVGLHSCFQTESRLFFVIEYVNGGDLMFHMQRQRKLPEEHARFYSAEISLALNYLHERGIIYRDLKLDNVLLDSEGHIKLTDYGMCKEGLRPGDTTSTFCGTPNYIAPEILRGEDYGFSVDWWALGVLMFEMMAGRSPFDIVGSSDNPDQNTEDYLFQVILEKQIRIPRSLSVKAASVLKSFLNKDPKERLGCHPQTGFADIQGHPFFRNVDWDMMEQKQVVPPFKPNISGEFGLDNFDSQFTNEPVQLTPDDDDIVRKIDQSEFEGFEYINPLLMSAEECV

MELK (human) = MELK (human) (UniProt Q14680)

Sequence of PRKAA2 PRKAB1 PRKAG1 (human) (P54619 whole entry, looked up): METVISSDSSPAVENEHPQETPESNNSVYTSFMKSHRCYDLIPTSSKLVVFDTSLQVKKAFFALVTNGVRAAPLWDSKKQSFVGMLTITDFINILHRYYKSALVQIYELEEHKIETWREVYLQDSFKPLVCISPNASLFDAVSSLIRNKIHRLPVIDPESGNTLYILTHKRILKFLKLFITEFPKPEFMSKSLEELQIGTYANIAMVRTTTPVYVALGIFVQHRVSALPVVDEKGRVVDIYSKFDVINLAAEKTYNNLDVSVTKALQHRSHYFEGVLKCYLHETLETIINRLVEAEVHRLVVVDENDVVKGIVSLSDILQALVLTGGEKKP
Sequence of PRKAA2 PRKAB1 PRKAG1 (human) (P54646 whole entry, looked up): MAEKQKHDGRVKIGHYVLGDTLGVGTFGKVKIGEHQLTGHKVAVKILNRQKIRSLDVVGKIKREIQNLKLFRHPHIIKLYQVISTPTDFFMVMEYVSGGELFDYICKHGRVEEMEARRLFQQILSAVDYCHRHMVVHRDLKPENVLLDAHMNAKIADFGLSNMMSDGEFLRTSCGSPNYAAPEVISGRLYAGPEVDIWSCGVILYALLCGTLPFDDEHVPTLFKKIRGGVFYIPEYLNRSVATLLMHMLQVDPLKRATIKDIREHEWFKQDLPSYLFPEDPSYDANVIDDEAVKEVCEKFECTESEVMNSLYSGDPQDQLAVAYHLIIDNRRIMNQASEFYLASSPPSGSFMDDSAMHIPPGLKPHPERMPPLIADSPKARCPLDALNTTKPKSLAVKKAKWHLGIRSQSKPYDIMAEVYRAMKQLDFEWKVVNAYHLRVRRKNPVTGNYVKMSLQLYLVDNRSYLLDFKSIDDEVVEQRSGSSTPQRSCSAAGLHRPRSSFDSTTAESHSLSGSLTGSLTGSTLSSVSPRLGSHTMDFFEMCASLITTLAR
Sequence of PRKAA2 PRKAB1 PRKAG1 (human) (Q9Y478 whole entry, looked up): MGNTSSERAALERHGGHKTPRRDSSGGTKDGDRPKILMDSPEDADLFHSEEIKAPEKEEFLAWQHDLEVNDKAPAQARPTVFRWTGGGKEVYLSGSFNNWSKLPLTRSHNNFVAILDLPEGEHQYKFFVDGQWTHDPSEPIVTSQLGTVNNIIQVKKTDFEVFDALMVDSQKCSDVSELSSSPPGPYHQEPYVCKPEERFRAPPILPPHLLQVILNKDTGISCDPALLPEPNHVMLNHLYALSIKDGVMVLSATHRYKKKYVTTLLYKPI

inhibition (DYRK4 (human); compound 0.1 µM): 16.9%
inhibition (DYRK4 (human); compound 1.0 µM): 1.3%
inhibition (AXL (human); compound 0.1 µM): 30.6%
inhibition (AXL (human); compound 1.0 µM): 77.3%
inhibition ([1]; compound 0.1 µM): 3.4%
inhibition ([1]; compound 1.0 µM): 17.6%
inhibition (CAMK2A (human); compound 1.0 µM): 4.4%
inhibition (ROS1 (human); compound 0.1 µM): 1%
inhibition (ROS1 (human); compound 1.0 µM): 12%
inhibition ([2]; compound 0.1 µM): 10.2%
inhibition ([2]; compound 1.0 µM): 43.4%
inhibition (CDK1 (human); compound 0.1 µM): 1.3%
inhibition (CDK1 (human); compound 1.0 µM): 4.7%
inhibition (YES1 (human); compound 0.1 µM): -7.2%
inhibition (YES1 (human); compound 1.0 µM): 29.9%
inhibition (CSNK1G2 (human); compound 0.1 µM): -9%
inhibition (CSNK1G2 (human); compound 1.0 µM): 1.2%
inhibition (HIPK1 (human); compound 0.1 µM): 1%
inhibition (HIPK1 (human); compound 1.0 µM): 5.5%
inhibition (HIPK2 (human); compound 0.1 µM): 8.7%
inhibition (HIPK2 (human); compound 1.0 µM): 14.7%
inhibition (MERTK (human); compound 0.1 µM): 52.7%
inhibition (MERTK (human); compound 1.0 µM): 94.5%
inhibition (ITK (human); compound 0.1 µM): 7%
inhibition (ITK (human); compound 1.0 µM): 34.9%
inhibition ([3]; compound 0.1 µM): 16.9%
inhibition ([3]; compound 1.0 µM): 61.1%
inhibition (NTRK3 (human); compound 0.1 µM): 39.3%
inhibition (NTRK3 (human); compound 1.0 µM): 83.6%
inhibition (DCLK1 (human); compound 0.1 µM): 3.5%
inhibition (DCLK1 (human); compound 1.0 µM): 5.9%
inhibition ([4]; compound 0.1 µM): 15.1%
inhibition ([4]; compound 1.0 µM): 59.4%
inhibition (FRK (human); compound 0.1 µM): 1%
inhibition (FRK (human); compound 1.0 µM): 8%
inhibition (DYRK3 (human); compound 0.1 µM): 9.6%
inhibition (DYRK3 (human); compound 1.0 µM): 21.5%
inhibition (PHKG1 (human); compound 0.1 µM): -1.3%
inhibition (PHKG1 (human); compound 1.0 µM): 17.4%
inhibition (EPHA8 (human); compound 0.1 µM): -1.9%
inhibition (EPHA8 (human); compound 1.0 µM): 4.6%
inhibition ([5]; compound 0.1 µM): 11.2%
inhibition ([5]; compound 1.0 µM): 1.9%
inhibition (TYRO3 (human); compound 0.1 µM): 20.2%
inhibition (TYRO3 (human); compound 1.0 µM): 66.3%
inhibition (MST1R (human); compound 0.1 µM): 23.8%
inhibition (MST1R (human); compound 1.0 µM): 78.2%
inhibition (ALK (human); compound 0.1 µM): -0.1%
inhibition (ALK (human); compound 1.0 µM): 12.2%
inhibition (JAK2 JH1 JH2 (human); compound 0.1 µM): -35.1%
inhibition (JAK2 JH1 JH2 (human); compound 1.0 µM): 41.2%
inhibition (RET (human); compound 0.1 µM): 7.4%
inhibition (RET (human); compound 1.0 µM): 44.1%
inhibition (RPS6KA6 KD1 KD2 (human); compound 0.1 µM): 0.5%
inhibition (RPS6KA6 KD1 KD2 (human); compound 1.0 µM): 5.6%
inhibition (MARK4 (human); compound 0.1 µM): 7.3%
inhibition (MARK4 (human); compound 1.0 µM): 16%
inhibition (KIT (human); compound 0.1 µM): -0.2%
inhibition (KIT (human); compound 1.0 µM): 8.9%
inhibition (PTK2B (human); compound 0.1 µM): -3.9%
inhibition (PTK2B (human); compound 1.0 µM): 3.2%
inhibition (PRKCI (human); compound 0.1 µM): 3.9%
inhibition (PRKCI (human); compound 1.0 µM): -0.5%
inhibition (MELK (human); compound 0.1 µM): 11.5%
inhibition (MELK (human); compound 1.0 µM): 45.5%
Structure (SMILES): CN(c1ccc2ccc3ncc(-c4cnn(C)c4)cc3c(=O)c2c1)S(=O)(=O)NCc1ccccn1

inhibition (DYRK4 (human); compound 0.1 µM): 1.8%
inhibition (DYRK4 (human); compound 1.0 µM): 0.5%
inhibition (AXL (human); compound 0.1 µM): 6.1%
inhibition (AXL (human); compound 1.0 µM): 20.3%
inhibition ([1]; compound 0.1 µM): 5.1%
inhibition ([1]; compound 1.0 µM): -1.5%
inhibition (CAMK2A (human); compound 0.1 µM): -8.9%
inhibition (CAMK2A (human); compound 1.0 µM): -3.1%
inhibition (ROS1 (human); compound 0.1 µM): 5.1%
inhibition (ROS1 (human); compound 1.0 µM): -12.4%
inhibition ([2]; compound 0.1 µM): 1.1%
inhibition ([2]; compound 1.0 µM): 2.7%
inhibition (CDK1 (human); compound 0.1 µM): -3.9%
inhibition (CDK1 (human); compound 1.0 µM): 1.2%
inhibition (YES1 (human); compound 0.1 µM): -0.7%
inhibition (YES1 (human); compound 1.0 µM): -5.3%
inhibition (CSNK1G2 (human); compound 0.1 µM): 2.7%
inhibition (CSNK1G2 (human); compound 1.0 µM): 5.8%
inhibition (HIPK1 (human); compound 0.1 µM): 7.2%
inhibition (HIPK1 (human); compound 1.0 µM): -0.1%
inhibition (HIPK2 (human); compound 0.1 µM): 3.6%
inhibition (HIPK2 (human); compound 1.0 µM): 3.9%
inhibition (MERTK (human); compound 0.1 µM): 2.5%
inhibition (MERTK (human); compound 1.0 µM): 15.5%
inhibition (ITK (human); compound 0.1 µM): -5%
inhibition (ITK (human); compound 1.0 µM): -1.8%
inhibition ([3]; compound 0.1 µM): -12.5%
inhibition ([3]; compound 1.0 µM): 21.5%
inhibition (NTRK3 (human); compound 0.1 µM): 6%
inhibition (NTRK3 (human); compound 1.0 µM): 10.4%
inhibition (DCLK1 (human); compound 0.1 µM): -26.1%
inhibition (DCLK1 (human); compound 1.0 µM): -5.4%
inhibition ([4]; compound 0.1 µM): -1.7%
inhibition ([4]; compound 1.0 µM): 2.1%
inhibition (FRK (human); compound 0.1 µM): 7.1%
inhibition (FRK (human); compound 1.0 µM): 6.2%
inhibition (DYRK3 (human); compound 0.1 µM): -1.4%
inhibition (DYRK3 (human); compound 1.0 µM): 2.9%
inhibition (PHKG1 (human); compound 0.1 µM): 7.9%
inhibition (PHKG1 (human); compound 1.0 µM): 1.2%
inhibition (EPHA8 (human); compound 0.1 µM): 9.4%
inhibition (EPHA8 (human); compound 1.0 µM): 5.1%
inhibition ([5]; compound 0.1 µM): 1.6%
inhibition ([5]; compound 1.0 µM): -11.1%
inhibition (TYRO3 (human); compound 0.1 µM): 4.1%
inhibition (TYRO3 (human); compound 1.0 µM): 4.2%
inhibition (MST1R (human); compound 0.1 µM): -3.6%
inhibition (MST1R (human); compound 1.0 µM): 20.5%
inhibition (ALK (human); compound 0.1 µM): 6.9%
inhibition (ALK (human); compound 1.0 µM): -9.5%
inhibition (JAK2 JH1 JH2 (human); compound 0.1 µM): -2.8%
inhibition (JAK2 JH1 JH2 (human); compound 1.0 µM): 5.9%
inhibition (RET (human); compound 0.1 µM): 1.9%
inhibition (RET (human); compound 1.0 µM): 2.8%
inhibition (RPS6KA6 KD1 KD2 (human); compound 0.1 µM): 5.9%
inhibition (RPS6KA6 KD1 KD2 (human); compound 1.0 µM): -8.4%
inhibition (MARK4 (human); compound 0.1 µM): 0%
inhibition (MARK4 (human); compound 1.0 µM): -3.4%
inhibition (KIT (human); compound 0.1 µM): -1.6%
inhibition (KIT (human); compound 1.0 µM): 6.6%
inhibition (PTK2B (human); compound 0.1 µM): 10%
inhibition (PTK2B (human); compound 1.0 µM): 2.5%
inhibition (PRKCI (human); compound 0.1 µM): -0.6%
inhibition (PRKCI (human); compound 1.0 µM): 1.4%
inhibition (MELK (human); compound 0.1 µM): 2.7%
inhibition (MELK (human); compound 1.0 µM): 5.7%
Structure (SMILES): O=C(CCc1ccc2ccc3ncc(C4CCNCC4)cc3c(=O)c2c1)NCc1ccccn1
